Source: PMC3502156, “Anti-plasmodial action of de novo-designed, cationic, lysine-branched, amphipathic, helical peptides” (Malaria Journal, 2012)
“And” between values parts separate entries of the source, which are not always exact repeats. Equal entries are not always repeated. Where two headings read alike, the source gives them in different places. Starred links: 1 amine or outer side, 2 acyl side, 3 side chain; linkers in the order of their positions; H or OH if unused. Positions of bridges follow the written chain, without caps; N, C: chain ends. Non-standard residues stand in square brackets, D forms with d. Residues, ends and D or L forms follow the SMILES beside them. Chains are numbered I, II in the order given. X1 = O=C(/C(=C/c1ccccc1)N[*:1])[*:2]

How the values were obtained:
[1] = system: P. falciparum 3D7 (chloroquine-sensitive); assay: microbe, parasite or virus in culture; format: cell-based, Plasmodium falciparum
Description: (§1) Chloroquine-sensitive (3D7) and CQ-resistant (Dd2 and INDO) strains of P. falciparum were maintained in continuous culture according to the method of Trager and Jensen with minor modifications. Cultures were maintained in fresh group O^+ve human erythrocytes suspended at 4% haematocrit in complete medium {16.2 g/L RPMI 1640 containing 25 mM HEPES, 11.11 mM glucose (Gibco), 0.2% sodium bicarbonate (Sigma), 0.5% Albumax I (Gibco), 45 μg/litre hypoxanthine (Sigma) and 50 μg/litre gentamicin (Gibco)} and incubated at 37°C under a gas mixture 5% O2, 5% CO2, and 90% N2. Every day, the spent medium was replaced by fresh complete medium to propagate the culture. […] Parasitaemia was monitored by microscopic examination of Giemsa-stained blood smears. Synchronized ring stage parasite was obtained by 5% sorbitol treatment. Trophozoites and schizont-stage parasites were enriched by using Percoll gradient.
(§2) Stock solutions of peptides and CQ were prepared in water (milli-Q grade) while artemisinin stock solution was in dimethyl sulphoxide (DMSO). All stocks were then diluted with culture medium to achieve the required drug concentrations. The concentration of peptide solution in water was based on A280 [ϵ (M^-1 cm^-1) ΔF (didehydrophenylalanine) 19,000, W (Tryptophan) 5,000)]. Thus ϵ280 were 62,000, 124,000, 124,000 and 248,000 for ΔFm, (ΔFm)2, ΔFd and ΔFq respectively. The concentration of FITC-peptides was based on A495 [ϵ(M^-1 cm^-1) FITC 77,000 for (ΔFm)2 with one FITC and 154,000 for ΔFd with two FITC per molecule]. Drugs and peptides solutions were placed in 96-well flat bottom tissue culture grade plates (Corning).
(§3) For drug screening, SYBR green I based fluorescence assay was used as described previously by Smilkstein et al.[30]. Sorbitol synchronized ring stage parasites (haematocrit: 2%, parasitaemia: 1%, 100 μl) under normal culture conditions were incubated in the absence or presence of increasing concentrations of peptides in water. CQ and artemisinin were used as positive controls. […] After 48 hr of incubation 100 μl of SYBR Green I buffer [0.2 μl of 10,000 X SYBR Green I (Invitrogen) per ml of lysis buffer {Tris (20 mM; pH 7.5), EDTA (5 mM), saponin (0.008%; wt/vol), and Triton X-100 (0.08%; vol/vol)}] was added to each well, mixed twice gently with multi-channel pipette and incubated in dark at 37 °C for 1 h. Fluorescence was measured with a Victor fluorescence multi-well plate reader (Perkin Elmer) with excitation and emission wavelength centred at 485 and 530 nm, respectively. Fluorescence counts for CQ (0.1 μM for 3D7, 1 μM for INDO) were subtracted from counts in each well. The fluorescence counts were plotted against the drug concentration and IC50 (the 50% inhibitory concentration) was determined by analysis of dose–response curves. Results of the above mentioned fluorescence-based assay were validated microscopically by examination of Giemsa-stained smears of peptide-treated parasite cultures. Statistical significance of relative potencies of peptides was determined by student’s T test.

[2] = system: P. falciparum Dd2 (CQ-resistant); assay: microbe, parasite or virus in culture; format: cell-based, Plasmodium falciparum; details: for Resistance index IC50 Dd2/ IC50 3D7: IC50 CQ resistant strain/ IC50 CQ sensitive strain
Description: as §1, §2, §3

[3] = system: P. falciparum INDO (CQ-resistant); assay: microbe, parasite or virus in culture; format: cell-based; details: Plasmodium falciparum; ring stage synchronized, 48 hr, SYBR Green I fluorescence, medium with 10% human serum; ± SD of three independent observations
Description: as §1, with “Synchronized ring stage parasite was obtained by 5% sorbitol treatment. Trophozoites and schizont-stage parasites were enriched by using Percoll gradient.” left out
For drug screening, SYBR green I based fluorescence assay was used as described previously by Smilkstein et al.[30]. […] Fluorescence was measured with a Victor fluorescence multi-well plate reader (Perkin Elmer) with excitation and emission wavelength centred at 485 and 530 nm, respectively. Fluorescence counts for CQ (0.1 μM for 3D7, 1 μM for INDO) were subtracted from counts in each well. […] Results of the above mentioned fluorescence-based assay were validated microscopically by examination of Giemsa-stained smears of peptide-treated parasite cultures. Statistical significance of relative potencies of peptides was determined by student’s T test.

proteases = details: branched dimer compared with linear dimer (ΔFm)2; cited from earlier work
Source text: Some important features of these peptides as drugs against malaria include their favourable resistance indices (Table 1) that allow them to rapidly kill both drug-sensitive and drug-resistant strains of malaria parasite with equal potencies, their amphipathic nature that gives them drug-like character, and their ability to permeabilize and penetrate biological membranes, which allows them to attack target cells both from the surface as well as intracellularly. In addition, the presence of the conformationally constrained, non-protein, amino acid didehydrophenylalanine in both ΔFd and (ΔFm)2 pr ...

[4] = system: P. falciparum 3D7 trophozoites; assay: Immunofluorescence staining of MSP3 in ΔFd treated trophozoite cultures; format: cell-based, Plasmodium falciparum; details: ΔFd 2.5 μM, 37°C, 6 hr; three independent observations
Description: Immunohistochemical Fluorescence staining of MSP3 in ∆Fd treated Trophozoite and Schizont cultures.
To probe mechanistic details of ∆Fd-mediated, premature parasite egress, P. falciparum 3D7 culture (2%
parasitaemia, 2% haematocrit) was incubated without (control) or with ∆Fd (2.5 µM) at 37°C for 6 hr in a final
volume of 100 µl made with RPMI (96 µl RPMI + 4 µl peptide solution). Smears were processed as follows: (a)
flooded with 2% BSA/PBS (1 hr, 37°C), (b) PBS washed and (c) flooded (1 hr, 370C) with polyclonal anti-MSP3
antibody produced in mouse (1: 100 dilution in 1% BSA/PBS), (d) PBS washed and (e) flooded with alexa fluor 488
labelled anti-mouse antibody (Sigma) (1: 500 dilution in 1% BSA/PBS, 1 hr, 370C in dark), (e) PBS washed and (f)
flooded with DAPI (4, 6-diamidino-2-phenylindole) (invitrogen) (500 ng/ml, 10 min, 370 C). After a final PBS wash
the smears were observed under Nikon eclipse fluorescence microscope using appropriate filters.

[5] = system: uninfected erythrocytes (URBC); assay: Haemolysis assay, uninfected red cells; format: cell-based, human; details: 3 h
Description: (§4) Selectivity of haemolysis by peptides for infected erythrocytes (PRBC) vs uninfected erythrocytes (URBC) was examined by incubating the test molecules with URBCs and PRBCs respectively in phosphate-buffered saline (PBS). Briefly, fresh RBCs were spin washed (1600 RPM; 5 min) three times in PBS and re-suspended in PBS at 2% haematocrit. A 100 μl suspension was added to 96-well plate containing the peptides at different concentrations. […] After incubation at 37°C for 3 hr, the samples were centrifuged and supernatant was used to determine the haemolytic activity measured in terms of haemoglobin release as monitored by […]. Triton-treated control samples were diluted 10-fold before reading absorbance. […] Percent haemolysis has been expressed with reference to 100% haemolysis value assigned to positive control (triton X 100 treated RBCs). To study haemolytic susceptibility of parasitized cells, URBCs were replaced with varying percentages (10% and 20%) of mixed stage parasitized cells. […] Haemolysis of parasitized erythrocytes was also monitored microscopically by examining the Giemsa-stained smears. Parasitaemia of ΔFd treated and untreated cultures were microscopically counted for ring, trophozoite and schizont stages respectively. Susceptibility of different stages was compared with corresponding untreated control cultures.

HeLa cells = format: cell-based; details: 48 h
Description: The cytotoxic effects of ΔFd on mammalian cells was assessed by functional assay as described using HeLa cells cultured in RPMI containing 10% fetal bovine serum, 0.21% sodium bicarbonate (Sigma) and 50 μg/mL gentamycin (complete medium). Briefly, cells (10^4 cells/200 μl/well) were seeded into 96-well flat-bottom tissue culture plates in complete medium. […] DMSO (as positive inhibitor) was added at 10%. Twenty microlitres of a stock solution of MTT (5 mg/mL in 1X phosphate buffered saline) was added to each well, gently mixed and incubated for another 4 hr. After spinning the plate at 1500 rpm for 5 min, supernatant was removed and 100 μl of DMSO (stop agent) was added. Formation of formazon was read on a microtiter plate reader (Versa max tunable multi-well plate reader) at 570 nm. The 50% cytotoxic concentration (TC50) of drug was determined by analysis of dose–response curves.

[6] = system: P. falciparum 3D7 (chloroquine-sensitive); assay: microbe, parasite or virus in culture; format: cell-based, Plasmodium falciparum; remark: listed apart in the source
[7] = system: infected erythrocytes (PRBC); assay: Haemolysis assay, parasitized red cells; format: cell-based, Plasmodium falciparum; details: 3 h
Description: as §4

Row | SMILES | IC50 ([1]; Plasmodium falciparum, 3D7, ring stage synchronized, haematocrit 2%, parasitaemia 1%, 48 hr, SYBR Green I fluorescence, ± SD of three independent observations, read-out: IC50 P. falciparum 3D7) [nM] | Resistance index IC50 Dd2/ IC50 3D7 [2] | IC50 ([2]; Plasmodium falciparum, DD2, ring stage synchronized, haematocrit 2%, parasitaemia 1%, 48 hr, SYBR Green I fluorescence, ± SD of three independent observations, read-out: IC50 P. falciparum Dd2) [nM] | IC50 [3] [nM] | stability against proteases (proteases) | IC50 ([1]; 3D7 (chloroquine-sensitive, 48 h)) [nM] | IC50 ([2]; Dd2 (CQ-resistant, 48 h)) [nM] | anomalously egressed trophozoites with MSP3 staining [4] | HC50 URBC [5] [µM] | Hemolytic Selectivity index (HC50 URBC/ IC50 Pf 3D7) [5] | TC50 HeLa cells (HeLa cells) [nM] | increment in potency at 96 hr (two cycles) vs 48 hr (one cycle) ([6]; P. falciparum 3D7, SYBR Green assay) [fold] | IC70 ([6]; P. falciparum 3D7, dose used on trophozoite and schizont cultures) [nM] | percentage haemolysis, mixed culture 10% parasitaemia [7] [%] | percentage haemolysis, mixed culture 20% parasitaemia [7] [%]
1 | C[C@@H]1CC[C@H]2[C@@H](C)C(=O)O[C@@H]3O[C@@]4(C)CC[C@@H]1[C@]32OO4 [Artemisinin, reference compound] | 15 | 1 | 16 | 15 | – | – | – | – | – | – | – | – | – | – | –
2 | CC(=O)NCC(=O)N/C(=C\c1ccccc1)C(=O)N[C@@H](CCCNC(=N)N)C(=O)N[C@@H](CCCCN)C(=O)N/C(=C\c1ccccc1)C(=O)N[C@@H](Cc1c[nH]cn1)C(=O)N[C@@H](CCCCN)C(=O)N/C(=C\c1ccccc1)C(=O)N[C@@H](Cc1c[nH]c2ccccc12)C(=O)N[C@@H](C)C(=O)NCCCC[C@H](NC(=O)[C@H](C)NC(=O)[C@H](Cc1c[nH]c2ccccc12)NC(=O)/C(=C/c1ccccc1)NC(=O)[C@H](CCCCN)NC(=O)[C@H](Cc1c[nH]cn1)NC(=O)/C(=C/c1ccccc1)NC(=O)[C@H](CCCCN)NC(=O)[C@H](CCCNC(=N)N)NC(=O)/C(=C/c1ccccc1)NC(=O)CNC(C)=O)C(N)=O [ΔFd] (I: Ac-G[X1]RK[X1]HK[X1]WAK-NH2 / II: Ac-G[X1]RK[X1]HK[X1]WA; amide I:11-II:C; N-terminus and C-terminus assumed) | – | 1.1 and ~ 1 | – | – | more stable against proteases | 1390 ± 100 | 1600 ± 90 | ~ 40% | > 50 | > 35 | > 25000 | 1.1 | 2500 | 7 | 16
